Source: patent US5679673A (priority 1994, dated 1997)
pKi: −log10 of the molar value.

Experiments:
NMDA receptor = conditions: C. Carter et al, J. Pharm Exp. Ther., 1988; cited from earlier work
sigma receptor [1] = conditions: de Costa et al, J. Med. Chem. 1989 and further structure activity studies; cited from earlier work
sigma receptor [2] = biological target: T1, sigma receptor (Cavia porcellus, UniProt Q60492); test: Radioreceptor assay: displacement of [3H](+)-pentazocine from guinea pig brain membranes; assay type: binding; conditions: [3H](+)-pentazocine 3 nM, guinea pig brain crude P2 membranes, pH 8.0, 120 min, 25° C.; average of 2-4 experiments; from IC50 by Cheng-Prusoff; read-out: Ki ([3H] (+) -Pent)
T1 construct: crude synaptosomal (P2) membrane fraction of guinea pig brain; tissue Pel-Freeze (frozen guinea pig brains); host or cells: guinea pig brain minus cerebella, crude P2 membranes
T1 sequence (Q60492 whole entry): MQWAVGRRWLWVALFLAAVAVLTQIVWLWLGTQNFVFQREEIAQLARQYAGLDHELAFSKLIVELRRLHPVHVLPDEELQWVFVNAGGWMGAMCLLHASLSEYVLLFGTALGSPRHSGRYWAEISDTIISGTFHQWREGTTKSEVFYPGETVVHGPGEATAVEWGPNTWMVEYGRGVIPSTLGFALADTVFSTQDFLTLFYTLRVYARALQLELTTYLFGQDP

| Molecule | NMDA receptor antagonism (NMDA receptor) | sigma receptor ligand (sigma receptor [1]) | also measured |
| --- | --- | --- | --- |
| 1-(4-chlorophenyl)-2-[1-(4-fluorophenyl)-piperidinyl]ethanol | non-competitive NMDA receptor antagonists |  |  |
| CN(CCc1ccc(Cl)c(Cl)c1)[C@@H]1CCCC[C@@H]1N1CCCC1 (single isomer, unassigned) [(+)-cis-N-[3,4-dichlorophenylethyl]-N-methyl-2-(1-pyrrolidinyl)-cyclohexylamine] |  | extremely potent and selective ligands for the sigma receptor |  |
| CN(CCc1ccc(Cl)c(Cl)c1)[C@@H]1CCCC[C@@H]1N1CCCC1 (single isomer, unassigned) [(-)-cis-N-[3,4-dichlorophenylethyl]-N-methyl-2-(1-pyrrolidinyl)-cyclohexylamine] |  | extremely potent and selective ligands for the sigma receptor |  |
| Clc1ccc(CCN2CCN3CCC2CC3)cc1Cl [Compound of Ex. 5, 4-[2-(3,4-Dichlorophenyl)ethyl]-1,4-diazabicyclo[2.2.3]nonane] |  |  | pKi (sigma receptor [2]): 6.90 |
| CC(C(O)c1ccc(O)cc1)N1CCC(Cc2ccccc2)CC1 (centres unmarked) [ifenprodil] | non-competitive NMDA receptor antagonists |  |  |
